Reference: patent US6943191B1, “Disubstituted lavendustin A analogs and pharmaceutical composition comprising the analogs” (The United States of America as represented by the …, priority 1998, dated 2005)
Read-outs that look alike come from different tables or passages of the source.

Assays:
K562 cells = assay: K562 cell culture and growth assay, 6 day MTT; format: cell-based, human; settings: Homo sapiens, 144 h, K562, 6 days, 4 or more experiments
Method: This example describes the procedure used for cell culture and growth assays. Human leukemia, Philadelphia-chromosome-positive CML cell line K562 was obtained from ATCC (Rockville, Md.). Cells were cultured in RPMI medium containing 10% fetal calf serum, 2 mM glutamine, 100 units/ml of penicillin and 100 μg/ml streptomycin Cells (2×10^3 cells/well) were incubated with increasing concentrations of compounds of the present invention dissolved in DMSO in a final volume of 200 μl in 96-well plates. Control cells were incubated with medium containing identical concentrations of the DMSO solvent. Growth of K562 cells was quantitated after 6 days by ability of living cells to reduce the yellow dye 3-(4,5-dimethylthiazolyl)-2,5-diphenyltetrazolium bromide (MTT) to a blue formazan product. Further information concerning this procedure is provided by Mossman T., “Rapid Colorimetric Assay for Cellular Growth and Survival—Application to Proliferation and Cytotoxicity Assays,” J. Immunol. Methods 1983, 65:55-63, which is incorporated herein by reference.

p210^bcr-abl = biological target: T1, p210^bcr-abl (Homo sapiens, UniProt P00519); assay: Inhibition of in vitro auto-phosphorylation of p210^bcr-abl, immune-complex kinase assay; format: biochemical; settings: immune complex kinase assay, 3 experiments, read-out: Enzyme Assays IC50 (μM) p210bcl-abl in vitro phosphorylation
T1 construct: immune complexes containing ^32P-labeled p210^bcr-abl were collected on protein Sepharose beads; BCR (N-terminal part of the breakpoint cluster region protein, natural fusion partner); endogenous in cells; host or cells: K562 cells (lysate, immunoprecipitated on Protein A-Sepharose); the other entry of the earlier key: BCR (P11274, Breakpoint cluster region protein)
Method: Inhibition of in vitro auto-phosphorylation of p210^bcr-abl in immune-complex kinase assays were conducted as follows. K562 cell line cells were washed twice in […]. The washed cells were lysed in PLC lysis buffer 150 mM HEPES (pH 7.5), 150 mM NaCl, 10% (v/v) glycerol, 1% (v/v) Triton X-100, 1.5 mM MgCl2, 1 mM EGTA. 10 μg/ml leupeptin, 10 μg/ml aprotinin, 1 mM sodium orthovanadate. 10 mM sodium pyrophosphate, 100 mM sodium fluoride and 1 mM phenylmethyl sulfonyl fluoride| Cell lysates were centrifuged at 100,000 g for 15 minutes and the supernatant collected. Protein concentrations of the clarified supernatants were determined by the Bradford Protein Assay, and the same quantity of protein was immunoprecipitated from control (vehicle-treated) and drug-treated cells. Cell lysates were incubated and gently rocked at 4° C. for 4 hours overnight with antibodies. Immune complexes were collected by incubation with Protein A-Sepharose beads (Pharmacia, Piscataway N.J.) and immune complexes (beads) were washed three times with HNTG buffer [20 mM HEPES (pH 7.5), 10% glycerol, 0.1% Triton X-100, 150 mM NaCl and 1 mM sodium orthovanadate] to remove unbound material. Bound proteins were boiled for 5 minutes in 2×SDS sample buffer (63 mM Tris-HCl, ph 6.8; 10% glycerol; 2% SDS; 0.0025% bromophenol blue: and […] 2 mercaptoethanol) prior to SDS-PAGE. Proteins were resolved on 4-20% gradient mini gels from Novex Experimental Technology (San Diego, Calif.).
After SDS-PAGE, proteins were electrophoretically transferred onto Immobilon polyvinylidene difluoride (PVDF) membranes (Millipore, Bedford, Mass.) at 250 mA for 4 hours at 4° C. using 2× Tris glycine transfer buffer (50 mM Tris, glycine), 20% methanol and 0.1% SDS. Residual binding sites on the membrane were blocked by incubation in TTS (20 mM Tris pH 7.4, 0.9% NaCl and 0.05% Tween 20) containing 3% BSA overnight at 4° C. or for 4 hours at room temperature. Blots were incubated for 1-1.5 hours with TTS containing 0.3% BSA with 1 μg/ml of mouse anti-P-Tyr, 2 μg/ml of mouse anti-Grb2 or 1 μg/ml of rabbit anti-She antibody. Blots were washed three times for 6 minutes each with TTS containing 0.3% BSA and probed with a 1:1000 dilution of rabbit anti-mouse antibody or directly with [^125I]Protein A (Amersham, Arlington Heights, Ill.) in blocking solutions. Proteins were visualized by autoradiography (exposed for 1-2 days at −70° C.).
The p210^bcr-abl, protein immunoprecipitates were washed twice with HTNG buffer Immunoprecipitates were washed once with 50 mM Tris (pH 7.0) and distributed to each reaction in 20 μl of 20 mM PIPES [piperazine-N,N′-bis(ethanesulfonic acid)] (pH 7.0)−20 mM MnCl2. Then, 10 μl of compounds made according to the present invention at desired concentrations from working stock solution prepared in 20 mM PIPEs (pH 7.0)−20 mM MnCl2 were added to each reaction tube. Reactions were initiated with the addition of 10 μl of [γ-^33P]ATP (10 μCi per sample, 3000 Ci/mmol; Amersham), incubated for 20 minutes at 30° C., stopped by addition of 10 μl of 5×SDS sample buffer, heated at 100° C. for 5 minutes, and analyzed on 4-20% SDS-PAGE and by autoradiography.
To assess the effect of drugs added in vitro on the state of p210^bcr-abl in the immune complexes, K562 cells were labeled with ^32P, lysed in PLC buffer and immune complexes containing ^32P-labeled p210^bcr-abl were collected on protein Sepharose beads and beads were washed four times with HNTG buffer. Immune complexes were divided into several tubes in 30 μl of PLC buffer in the presence of compounds made as described herein.

[1] = system: panel of approximately 60 different human tumor cell lines; assay: National Cancer Institute drug screen, mean-graph parameters; format: cell-based; settings: mean over cell line panel, two days exposure; for GI50: Homo sapiens, 48 h, read-out: Tumor cell Mean log GI50 (converted)
Method: Compounds of the present invention also have been subjected to the drug screening procedure employed by the National Cancer Institute for the screening of drugs having possible anticancer utility. The screening procedure uses a diverse, disease-oriented panel consisting of approximately 60 different human tumor cell lines organized into disease-specific subpanels. The compounds of the present invention were tested over a range of concentrations for cytotoxic or growth-inhibitory effects against cell lines comprising the panel. The eight subpanels represented diverse histologies (leukemias, melanomas, and tumors of the lung, colon, kidney, breast, ovary, and brain).
Compounds of the present invention were tested over a period of two days. During this period the cells were continuously exposed to various concentrations of the compounds tested. The tests produced individual dose-responses, one for each cell line (i.e. one for each example), and the data were represented in dose-response curves. The data provided by these dose response curves were summarized using a mean-graph format.
To produce data for the mean-graph format, a compound concentration that produced a target level response was calculated for each cell line. Three different response parameters were evaluated. The first response parameter was the growth inhibition (“GI50”). GI50 is the concentration of compounds made according to the present invention that produced an apparent 50% decrease in the number of tumor cells relative to the appropriate control (not exposed to the compounds of the present invention) at the end of the incubation period.
The second response parameter was the total growth inhibition (“TGI”). TGI is the concentration at which the number of tumor cells remaining at the end of the incubation period substantially equal the number of tumor cells existing at the start of the incubation period.
The third response parameter was the lethal concentration (“LC50”) LC50 is the concentration of compounds made according to the present invention that caused an apparent 50 percent reduction in the number of tumor cells […] at the start of the incubation period.
In a typical GI50 mean graph, the relative position of the vertical reference line along the horizontal concentration axis was obtained by averaging the negative log10GI50 values for all the cell lines tested against the compound. Horizontal bars were then plotted for the individual negative log10GI50 values of each cell line relative to the vertical reference line. The GI50 graph thus provided a characteristic fingerprint for the compound, displaying the individual cell lines that are proportionately more sensitive than average (bars extending to the right of the reference line) or proportionately less sensitive than average (bars extending to the left of the reference line). The length of a bar was proportional to the difference between the log10GI50 value obtained with the particular cell line and the mean (represented by the vertical reference line).
Similar mean graphs were prepared for the TGI and LC50 response parameters.

[2] = Table 8, mean+S.E., read-out: IC50 (μM) 6 dMTT
[3] = Table 9, mean ± S.E., read-out: IC50 (μM) 6dMTT

T1 sequence (P00519 with tags, fused parts or gaps): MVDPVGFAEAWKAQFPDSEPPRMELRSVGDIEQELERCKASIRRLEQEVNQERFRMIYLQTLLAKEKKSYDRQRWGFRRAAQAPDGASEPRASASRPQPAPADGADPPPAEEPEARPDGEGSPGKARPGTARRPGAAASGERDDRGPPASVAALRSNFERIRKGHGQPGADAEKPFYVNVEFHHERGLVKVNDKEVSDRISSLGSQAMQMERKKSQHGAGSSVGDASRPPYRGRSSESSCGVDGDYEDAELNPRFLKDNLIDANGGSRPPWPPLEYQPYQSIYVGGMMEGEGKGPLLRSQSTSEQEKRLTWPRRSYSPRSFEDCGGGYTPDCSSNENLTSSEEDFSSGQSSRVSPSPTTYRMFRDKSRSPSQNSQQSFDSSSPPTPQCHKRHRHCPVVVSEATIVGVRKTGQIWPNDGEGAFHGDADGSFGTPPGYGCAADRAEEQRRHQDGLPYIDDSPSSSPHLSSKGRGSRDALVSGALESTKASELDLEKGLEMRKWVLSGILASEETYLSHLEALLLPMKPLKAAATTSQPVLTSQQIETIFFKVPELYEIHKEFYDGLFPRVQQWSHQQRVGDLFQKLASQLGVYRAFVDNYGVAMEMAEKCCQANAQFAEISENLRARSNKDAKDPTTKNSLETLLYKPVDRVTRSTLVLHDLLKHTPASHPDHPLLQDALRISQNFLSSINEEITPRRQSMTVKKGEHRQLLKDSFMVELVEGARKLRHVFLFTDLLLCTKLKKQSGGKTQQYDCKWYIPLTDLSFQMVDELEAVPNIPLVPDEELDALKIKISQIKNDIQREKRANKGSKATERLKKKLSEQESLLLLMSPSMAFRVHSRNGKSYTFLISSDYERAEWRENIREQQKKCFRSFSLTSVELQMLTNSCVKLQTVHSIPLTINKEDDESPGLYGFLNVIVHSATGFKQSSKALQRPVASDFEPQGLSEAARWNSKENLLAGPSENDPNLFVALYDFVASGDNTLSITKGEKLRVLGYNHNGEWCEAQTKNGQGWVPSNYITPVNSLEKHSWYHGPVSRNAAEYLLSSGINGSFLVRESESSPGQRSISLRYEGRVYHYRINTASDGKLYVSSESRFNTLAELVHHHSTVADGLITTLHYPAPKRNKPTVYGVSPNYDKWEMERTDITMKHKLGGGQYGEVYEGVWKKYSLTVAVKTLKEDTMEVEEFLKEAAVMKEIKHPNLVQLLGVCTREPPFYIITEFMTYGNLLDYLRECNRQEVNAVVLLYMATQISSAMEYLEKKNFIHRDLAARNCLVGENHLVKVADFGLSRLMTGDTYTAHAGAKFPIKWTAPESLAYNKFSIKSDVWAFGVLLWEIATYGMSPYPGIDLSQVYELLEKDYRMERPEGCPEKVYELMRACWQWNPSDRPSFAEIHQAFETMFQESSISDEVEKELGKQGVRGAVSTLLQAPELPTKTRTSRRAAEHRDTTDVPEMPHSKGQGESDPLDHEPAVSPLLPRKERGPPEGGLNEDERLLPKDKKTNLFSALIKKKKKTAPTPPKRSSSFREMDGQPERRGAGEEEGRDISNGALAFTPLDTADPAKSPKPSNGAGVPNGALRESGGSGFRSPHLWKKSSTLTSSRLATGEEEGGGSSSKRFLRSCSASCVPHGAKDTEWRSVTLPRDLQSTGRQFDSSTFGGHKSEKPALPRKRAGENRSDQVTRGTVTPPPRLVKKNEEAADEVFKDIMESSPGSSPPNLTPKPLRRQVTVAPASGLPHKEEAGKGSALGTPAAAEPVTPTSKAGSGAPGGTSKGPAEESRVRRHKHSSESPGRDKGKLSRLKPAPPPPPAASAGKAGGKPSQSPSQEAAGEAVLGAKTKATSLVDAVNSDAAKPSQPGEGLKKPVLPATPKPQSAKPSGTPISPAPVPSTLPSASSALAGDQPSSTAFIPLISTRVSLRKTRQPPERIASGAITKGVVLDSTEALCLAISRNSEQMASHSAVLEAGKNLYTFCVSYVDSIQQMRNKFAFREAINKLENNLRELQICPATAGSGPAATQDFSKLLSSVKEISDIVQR

| Compound | IC50 (K562 cells; [2]) | IC50 (p210^bcr-abl; Table 8, mean+S.E.) | Tumor Cell Mean log GI50 ([1]; Table 8) | Tumor Cell Mean log TGI ([1]; Table 8) | IC50 (K562 cells; [3]) | IC50 (p210^bcr-abl; Table 9, mean ± S.E.) | GI50 ([1]; Table 9) | Tumor Cell Mean log TGI ([1]; Table 9) |
| --- | --- | --- | --- | --- | --- | --- | --- | --- |
| CC(=O)c1ccc(NCc2cc(O)ccc2O)cc1 [Compound 17, 4′-acetophenone-1′-N-2,5-dihydroxybenzylamine] | 13 µM | 1.03 µM | −4.72 | −4.25 |  |  |  |  |
| COC(=O)c1ccc(NCC2=CC(=O)C=CC2=O)cc1O [Compound 20, 3′-hydroxy-4′-methylbenzoate-1′-N-p-quinone-2-methyl amine] |  |  |  |  | 17 ± 0.3 µM | 5.15 ± 1.01 µM | 17 µM | −4.36 |
| CC(C)OC(=O)c1ccc(NCC2=CC(=O)C=CC2=O)cc1 [Compound 21, 4′-isopropylbenzoate-1′-N-p-quinone-2-methyl amine] |  |  |  |  | 17.4 ± 1 µM | 13.7 ± 5.78 µM | 26.9 µM | −4.55 |
| O=C1C=CC(=O)C(CNc2ccc(C(=O)OC34CC5CC(CC(C5)C3)C4)cc2)=C1Br [Compound 23, 4′-adamantylbenzoate-1′-N-2-bromo-p-quinone-3-methyl amine] |  |  |  |  | 24.8 ± 3.1 µM | 2.38 ± 0.45 µM | 7.59 µM | −4.60 |
| CC(C)(C)OC(=O)c1ccc(NCC2=C(Br)C(=O)C=CC2=O)cc1 [Compound 24, 4′-t-butylbenzoate-1′-N-2-bromo-p-quinone-3-methyl amine] |  |  |  |  | 64.8 ± 1.22 µM | 2.68 ± 1.33 µM | 17.8 µM | −4.31 |
| COC(=O)c1ccc(NCC2=C(Br)C(=O)C=CC2=O)cc1Cl [Compound 25, 3′-chloro-4′-methylbenzoate-1′-N-2-bromo-p-quinone-3-methyl amine] |  |  |  |  | 17.5 ± 0.1 µM | 2.35 ± 0.41 µM | 21.9 µM | −4.34 |
| CC(C)OC(=O)c1ccc(NCC2=CC(=O)C=CC2=O)cc1Cl [Compound 26, 3′-chloro-4′-isopropylbenzoate-1′-N-p-quinone-2-methyl amine] |  |  |  |  | 27.7 ± 0.6 µM | 3.01 ± 1.75 µM | 9.55 µM | −4.41 |
| O=C(O)c1cc(N(Cc2ccccc2O)Cc2cc(O)ccc2O)ccc1O [Lavendustin A, 5-[(2,5-dihydroxy-benzyl)-(2-hydroxy-benzyl)-amino]-2-hydroxy-benzoic acid] | 44.7 µM | 41.1 µM | −4.06 | −4.00 |  |  |  |  |
| COP(=O)(OC)c1ccc(NCc2cc(O)ccc2O)cc1 [O═P(OCH3)2 / H / H, 4′-phenylphosphonate-1-N-2,5-dihydroxybenzylamine] | 9.83 µM | 0.49 µM | −4.61 | −4.23 |  |  |  |  |
